In patent publication US20240238254A1, “PHARMACOLOGICAL INTERVENTION OF THE ARACHIDONIC ACID PATHWAY TO CURE AMYOTROPHIC LATERAL SCLEROSIS” (The Johns Hopkins University, priority 2021, published 2024):

Assays:
[1] = system: HB9::GFP+ cells of SOD1^A4V ALS hiPSC line (sMN differentiation); assay: Motor neuron compound screening: HB9::GFP+ sMN survival by FACS, SOD1A4V line; type: cell-based, human
Protocol: Cells were dissociated using Accutase after incubation for 20 min at 37° C. and suspended with buffer containing 40 μg/ml DNase I (Roche Applied Science). For GFP analysis, BD FACS Calibur (Becton Dickinson) and FlowJo software (Tree Star Inc.) were used. To purify GFP^+ populations for each reporter line, a MoFlo high-speed sorter (Dako Cytomation) in the Johns Hopkins School of Public Health Flow Cytometry Core Facility and a BD FACSJazz sorter in the Stem Cell Core Facility of Johns Hopkins Medicine (Institute for Cell Engineering) were used.
SMN differentiation was performed as previously described^67. For general sMN culture media, neurobasal medium (Gibco) containing B27 (Gibco), N2 (Gibco), and 2 mM L-glutamine was used as a normal medium. For compound testing, neurobasal medium with N2 was used as a conditioned medium using caffeic acid (Sigma, C0625), R-Deprenyl hydrochloride (Sigma, M003), Ajamaline (MP Biomedicals, 4360-12-7), Creatine (Sigma, 1150320) and ISP-1 (Sigma, M1177), BW755C (Tocris, 105910), Nordihydroguaiaretic acid (Sigma, 74540), Apigenin (Fisher Scientific, 50908414), U-73122 (Thermo, 126810). For Arachidonic acid testing, Arachidonic acid (Cayman, 506-32-1) was treated in normal media. For mitomycin C treatment, 1 μg/ml of mitomycin C was treated in differentiating oMN or sMN cells for 1 hr at D17 and analyzed after 2 days (D19) by FACS. For fold change value, non-treated % of GFP^+ were considered as a control and fold change values were normalized upon % of GFP expression of non-treated cells by FACS. […]

[2] = system: C9ORF72 (G4C2)30 Drosophila model; assay: Fly eye degeneration experiment; type: in vivo; conditions: compound feeding; CA 6.25 μl to 50 μl, NDGA 1.25 μM to 5 μM, Api 2.5 μM to 5 μM
Protocol: Flies were maintained on a cornmeal-molasses-yeast medium at room temperature (22° C.) with 60-65% humidity. The following Drosophila lines were obtained from the Bloomington Stock Center: elav-GAL4, GMR-GAL4, and OK371-GAL4. The UAS-(G4C2)3 and UAS-(G4C2)30 lines were obtained from Dr. Peng Jin's laboratory^81.
UAS-(G4C2)30 flies recombined with GMR-Gal4 were selected as male parental flies for crossing (♀w^1118×♂GMR-Gal4; UAS-(G4C2)30/CyO). Overexpressing 30 hexanucleotide repeat (HRE) in all photoreceptors using GMR-Gal4 causes eye degeneration in adult flies during aging. Eye degeneration scores were examined based on Dr. Paul Taylor's study^110. Data of eye degeneration was quantified for the presence of: supernumerary inter-ommatidial bristles (IOBs), IOBs with abnormal orientation, necrotic patches, a decrease in size, retinal collapse, fusion of ommatidia, disorganization of ommatidial array and loss of pigmentation in adult male progeny.

O=C(O)/C=C/c1ccc(O)c(O)c1 [caffeic acid, 3,4-dihydroxy benenearcrylic acid]
levels of HB9::GFP+ cells ([1]; SOD1^A4V ALS line, treatment D11-D23 of sMN differentiation, conditioned medium, FACS, vs vehicle): sufficiently rescue | levels of HB9::GFP expression after mitomycin C treatment ([1]; SOD1^A4V sMN culture, mitomycin C 1 μg/ml, 1 hr): elevates | eye degeneration phenotypes [2]: significant dose-dependent recovery
